Earlier results, collected in US7459223B2, “Electrochemical methods for generation of a biological proton motive force” (Board of Trustees of Michigan State University, priority 1998, dated 2008).
Where two headings read alike, the source gives them in different places.

Details: cited from earlier work

| Compound | E0′ (redox potential) (Table 1, redox mediators) [V] | E0′ (redox potential) [volt] |
| --- | --- | --- |
| Menaquinone | −0.074 | −0.073 |
| NC(=O)c1ccc[n+]([C@@H]2O[C@H](COP(=O)(O)OP(=O)(O)OC[C@H]3O[C@@H](n4cnc5c(N)ncnc54)[C@H](O)[C@@H]3O)[C@@H](O)[C@H]2O)c1 [NAD^+] | −0.32 | – |
